According to patent US11633421B2, “Use of NAD precursors for improving maternal health and/or offspring health” (UNIVERSITY OF IOWA RESEARCH FOUNDATION, priority 2016, dated 2023):

How the values were obtained:
[1] = Pup growth and weanling body composition (post-partum maternal NR); assay type: in vivo, mice
Method: FIG. 15. Maternal NR increases pup growth early in the neonatal period. Neonatal pups body weight from Day 0 to Day 14 (n=5 litter per group). FIGS. 16A-D. 21 day old pups of NR-supplemented mothers are bigger. Males and females were analyzed separately. The order of the bars from left to right are: males of normal chow (NC) mothers (white with light grey outline), followed by males of NR-supplemented mothers (filled light grey), followed by females of NC mothers (white with dark grey outline), followed by females of NR-supplemented mothers (filled dark grey). […] As shown in FIG. 16A-C, 21 day old weanlings of NR-supplemented mothers are larger in overall mass, fat mass and lean mass.

[2] = Offspring body composition, brain mass and activity at weaning (Example 1); assay type: in vivo, mice
Method: (§1) Female C57BL/6N mice were raised in 12 hour light:dark cycles on Teklad 2920X chow (NC). For 12 weeks prior to mating with a single C57BL/6N male, females were on either NC (n=4) or NC+NR (n=4). Females were maintained on the same diet through gestation and weaning, which was at 21 days after birth. […] The improved body composition of mice from NR-supplemented mothers was entirely unexpected.

[3] = Dark/light chamber test of offspring; assay type: in vivo, mice
Description: FIGS. 20A-C. […] The order of the bars from left to right are: males of normal chow (NC) mothers (white with light grey outline), followed by males of NR-supplemented mothers (filled light grey), followed by females of NC mothers (white with dark grey outline), followed by females of NR-supplemented mothers (filled dark grey). It was considered interesting that males and female adults of NR-supplemented mothers maintain distinct physical advantages into adulthood on the basis of the mother's micronutrition. […] This could be interpreted either as a simple increase in activity and/or a less anxious state of being.

mTOR pathway = assay: phospho-mTOR in mammary tissue; assay type: in vivo, mice; details: NR-supplemented mothers
Description: FIGS. 13A-D. NR boosts prolactin circulation and mammary biosynthetic pathways for protein, fat and carbohydrate. FIG. 13A. Prolactin levels in plasma from dam on NC or NR chow. FIG. 13B. mTOR pathway is activated in NR-supplemented mammary tissue. FIG. 13C. Genes involved in lipid biosynthesis are activated in NR-supplemented mammary tissue. FIG. 13D. Genes involved in lactose synthesis pathway are activated in NR-supplemented mammary tissue. […] In addition, the size of the mammary tissue itself is greater in NR-supplemented mothers than in non-supplemented mothers (FIG. 14A).

[4] = Mammary gland development (size of mammary tissue); assay type: in vivo, mice; details: NR-supplemented vs non-supplemented mothers
Description: FIGS. 14A-B. Postpartum NR supplementation promotes mammary gland development (n=5 mice per group) (FIG. 14A). NR increases heat loss by increasing expression of UCP1 (FIG. 14B). […] In addition, the size of the mammary tissue itself is greater in NR-supplemented mothers than in non-supplemented mothers (FIG. 14A).

[5] = Brain size and caudate putamen of offspring; assay type: in vivo, mice
Description: FIGS. 24A-D. 69 days after their mother's intervention, the female offspring tend to have larger brains […] (FIG. 24A). Pups of NR-supplemented moms show advanced pruning of the caudate putamen at day 22 (FIGS. 24B-C); however, the caudate putamen in pups from NR-supplemented mothers grows to a normal size in adulthood (FIG. 24D). The order of the bars from left to right are: males of normal chow (NC) mothers (white with light grey outline), followed by males of NR-supplemented mothers (filled light grey), followed by females of NC mothers (white with dark grey outline), followed by females of NR-supplemented mothers (filled dark grey). At 91 days, the mice were sacrificed and examined with respect to their brains. In FIG. 24A, it was shown that female mice from NR-supplemented mothers have larger brains in adulthood. We hypothesized that the caudate putamen, which is the motor learning center of the brain, may have developed more rapidly in mice whose mothers had been NR-supplemented either due to the increased quality and/or quantity of milk they received and/or improved maternal care.

[6] = Body composition of adult offspring; assay type: in vivo, mice; details: 90 days old
Method: FIGS. 23A-C. 69 days after their mother's intervention, 90 day-old adult offspring of NR-supplemented mothers have less fat mass. The order of the bars from left to right are: males of normal chow (NC) mothers (white with light grey outline), followed by males of NR-supplemented mothers (filled light grey), followed by females of NC mothers (white with dark grey outline), followed by females of NR-supplemented mothers (filled dark grey). At 90 days old, body composition analysis was performed on the mice. […] There is no effect on the total amount of lean mass (23C). Particularly because the maternal intervention produced somewhat bigger weanlings with more fat and lean mass, the protection against age-induced weight gain was unanticipated.

[7] = Maternal weight gain, NR chloride in chow from 12 weeks before mating through weaning; assay type: in vivo; details: female mice, NC+NR vs NC
Description: Mice are a widely used model of human metabolism because they are capable of recapitulating many aspects of human health. […] Therefore, mice were used in a series of in vivo experiments to evaluate whether maternally supplemented NR has the ability to improve maternal and/or neonatal health and development. Specifically, it was asked whether addition of NR chloride (3 g/kg of chow) to the diet of female mice would alter their health during and after pregnancy and whether this administration would produce any beneficial effects on the pups.
Female C57BL/6N mice were raised in 12 hour light:dark cycles on Teklad 2920X chow (NC). For 12 weeks prior to mating with a single C57BL/6N male, females were on either NC (n=4) or NC+NR (n=4). Females were maintained on the same diet through gestation and weaning, which was at 21 days after birth.

[8] = Offspring fasting glucose (Example 1); assay type: in vivo, mice
Method: as §1, with “mild hypoglycemia” for “improved body composition”, “on standard chow was not expected and the improvement in glycemic control by virtue of supplementing” for “from NR-supplemented”, “was” for “was entirely”

[9] = 21 day old weanlings of NR-supplemented mothers

NC(=O)c1ccc[n+]([C@@H]2O[C@H](CO)[C@@H](O)[C@H]2O)c1 [NR, nicotinamide riboside]
brain weight of weanlings ([1]; 21 day old females): tend to have larger brain weight | fat mass of weanlings [1, 9]: larger | lean mass of weanlings [1, 9]: larger | overall mass of weanlings [1, 9]: larger | neonatal size (pup body weight) ([1]; particularly at day 7 and 9): boosts neonatal size | physical activity of fasted neonates ([2]; NR in the diet of female mice): greater physical activity | body composition (fat mass) of mice raised by NR-supplemented mothers ([2]; at weaning): leaner | brain mass of mice raised by NR-supplemented mothers ([2]; at weaning): tend toward larger brains | time in the light ([3]; 75 day-old female offspring): spend more time in the light | time in the light chamber of a dark/light chamber ([3]; 75 days of age, offspring of NR-supplemented mothers): more willing to spend time in the light chamber | phosph-mTOR in mammary (mTOR pathway): higher level | size of the mammary tissue [4]: greater | brain size in adulthood ([5]; 91 days, female mice from NR-supplemented mothers): larger | caudate putamen in adults ([5]; adult offspring): not affected | caudate putamen pruning (area of PSD95 staining) ([5]; female weanlings): clearly advanced pruning | caudate putamen size in weanlings ([5]; weanlings at 21 days): slightly smaller | total amount of lean mass of adult offspring [6]: no effect | body size of adult offspring ([6]; male offspring): slightly smaller | adipose tissue of adult offspring ([6]; males and females, 69 days after mother's intervention): less adipose tissue | maternal body fat at the time of weaning [7]: tended to have lower body fat | weight gain from the day of mating to the day of weaning ([7]; NR chloride 3 g/kg of chow): protected from this weight gain | glucose after an overnight fast, mice raised by NR-supplemented mothers [8]: better at maintaining glucose
